PubChem BioAssay (NCI)
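Cultured in 96-well plates, cells were exposed to test compound for 48 hours across five concentrations. GI50: concentration for 50% inhibition of growth. TGI: total growth inhibition.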

Assays:
Assay in all cases: NCI tumour cell line growth inhibition, 48 h
[1] = tested on: 786-0 renal
[2] = tested on: A498 renal
[3] = tested on: A549 NSCLC
[4] = tested on: ACHN renal
[5] = tested on: BT-549 breast
[6] = tested on: CAKI-1 renal
[7] = tested on: CCRF-CEM leukemia
[8] = tested on: COLO 205 colon
[9] = tested on: DU-145 prostate
[10] = tested on: EKVX NSCLC
[11] = tested on: HCC-2998 colon
[12] = tested on: HCT-116 colon
[13] = tested on: HCT-15 colon
[14] = tested on: HL-60(TB) leukemia
[15] = tested on: HOP-62 NSCLC
[16] = tested on: HOP-92 NSCLC
[17] = tested on: HS 578T breast
[18] = tested on: HT29 colon
[19] = tested on: IGROV1 ovarian
[20] = tested on: K-562 leukemia
[21] = tested on: KM12 colon
[22] = tested on: M14 melanoma
[23] = tested on: MALME-3M melanoma
[24] = tested on: MCF7 breast
[25] = tested on: MDA-MB-231 breast
[26] = tested on: MDA-MB-435
[27] = tested on: MOLT-4 leukemia
[28] = tested on: NCI-H226 lung
[29] = tested on: NCI-H23 lung
[30] = tested on: NCI-H460 lung
[31] = tested on: NCI-H522 lung
[32] = tested on: NCI/ADR-RES ovarian
[33] = tested on: OVCAR-4 ovarian
[34] = tested on: OVCAR-5 ovarian
[35] = tested on: OVCAR-8 ovarian
[36] = tested on: PC-3 prostate
[37] = tested on: RPMI-8226 leukemia
[38] = tested on: RXF 393 renal
[39] = tested on: SF-268 CNS
[40] = tested on: SF-295 CNS
[41] = tested on: SF-539 CNS
[42] = tested on: SK-MEL-2 melanoma
[43] = tested on: SK-MEL-28 melanoma
[44] = tested on: SK-MEL-5 melanoma
[45] = tested on: SK-OV-3 ovarian
[46] = tested on: SN12C renal
[47] = tested on: SNB-19 CNS
[48] = tested on: SNB-75 CNS
[49] = tested on: SR leukemia
[50] = tested on: SW-620 colon
[51] = tested on: T-47D breast
[52] = tested on: TK-10 renal
[53] = tested on: U251 CNS
[54] = tested on: UACC-257 melanoma
[55] = tested on: UACC-62 melanoma
[56] = tested on: UO-31 renal
[57] = tested on: LOX IMVI melanoma

With `O=C(CCC(=O)N1CCOCC1)OCCCCCCSc1ccc([N+](=O)[O-])c2nonc12` the GI50 [1] was 1400 nM, the TGI [1] was 4150 nM and the GI50 [2] was 1850 nM. For the same molecule, the TGI [2] was 4260 nM, the GI50 [3] was 2900 nM and the TGI [3] was 12000 nM. For the same molecule, the GI50 [4] was 472 nM, the TGI [4] was 1680 nM and the GI50 [5] was 939 nM. It also gave a TGI [5] of 2170 nM, a GI50 [6] of 1520 nM and a TGI [6] of 3950 nM. For the same molecule, the GI50 [7] was 284 nM, the TGI [7] was 3850 nM and the GI50 [8] was 1890 nM. For the same molecule, the TGI [8] was 4590 nM, the GI50 [9] was 1400 nM and the TGI [9] was 2710 nM. For the same molecule, the GI50 [10] was 1550 nM, the TGI [10] was 3260 nM and the GI50 [11] was 1680 nM. The TGI [11] was 3160 nM, the GI50 [12] was 410 nM and the TGI [12] was 1670 nM. It also gave a GI50 [13] of 267 nM, a TGI [13] of 1120 nM and a GI50 [14] of 313 nM. It also gave a TGI [14] of 1620 nM, a GI50 [15] of 1740 nM and a TGI [15] of 4450 nM. For the same molecule, the GI50 [16] was 1240 nM, the TGI [16] was 2830 nM and the GI50 [17] was 1690 nM. It also gave a TGI [17] of 5990 nM, a GI50 [18] of 1010 nM and a TGI [18] of 4270 nM. It also gave a GI50 [19] of 1010 nM, a TGI [19] of 2240 nM and a GI50 [20] of 259 nM. For the same molecule, the TGI [20] was > 100000 nM, the GI50 [21] was 2700 nM and the TGI [21] was 7770 nM. For the same molecule, the GI50 [22] was 1320 nM, the TGI [22] was 2890 nM and the GI50 [23] was 1150 nM. For the same molecule, the TGI [23] was 2510 nM, the GI50 [24] was 334 nM and the TGI [24] was 1920 nM. It also gave a GI50 [25] of 1390 nM, a TGI [25] of 3080 nM and a GI50 [26] of 1160 nM. For the same molecule, the TGI [26] was 2500 nM, the GI50 [27] was 410 nM and the TGI [27] was 3490 nM. It also gave a GI50 [28] of 1440 nM, a TGI [28] of 3810 nM and a GI50 [29] of 1390 nM. It also gave a TGI [29] of 3000 nM, a GI50 [30] of 1700 nM and a TGI [30] of 3820 nM. It also gave a GI50 [31] of 853 nM, a TGI [31] of 3930 nM and a GI50 [32] of 759 nM. It also gave a TGI [32] of 4440 nM, a GI50 [33] of 1820 nM and a TGI [33] of 3800 nM. It also gave a GI50 [34] of 1580 nM, a TGI [34] of 3250 nM and a GI50 [35] of 827 nM. The TGI [35] was 9250 nM, the GI50 [36] was 1600 nM and the TGI [36] was 4190 nM. It also gave a GI50 [37] of 401 nM, a TGI [37] of 3350 nM and a GI50 [38] of 574 nM. It also gave a TGI [38] of 1960 nM, a GI50 [39] of 1650 nM and a TGI [39] of 5250 nM. The GI50 [40] was 2460 nM, the TGI [40] was 7210 nM and the GI50 [41] was 666 nM. It also gave a TGI [41] of 1990 nM, a GI50 [42] of 2480 nM and a TGI [42] of 6680 nM. It also gave a GI50 [43] of 1620 nM, a TGI [43] of 3110 nM and a GI50 [44] of 1700 nM. For the same molecule, the TGI [44] was 3290 nM, the GI50 [45] was 3850 nM and the TGI [45] was 16900 nM. The GI50 [46] was 1010 nM, the TGI [46] was 2300 nM and the GI50 [47] was 1610 nM. For the same molecule, the TGI [47] was 4710 nM, the GI50 [48] was 490 nM and the TGI [48] was 17000 nM. It also gave a GI50 [49] of 239 nM, a TGI [49] of 2160 nM and a GI50 [50] of 479 nM. It also gave a TGI [50] of 2280 nM, a GI50 [51] of 2030 nM and a TGI [51] of 5110 nM. For the same molecule, the GI50 [52] was 4100 nM, the TGI [52] was 13300 nM and the GI50 [53] was 640 nM. It also gave a TGI [53] of 2700 nM, a GI50 [54] of 1630 nM and a TGI [54] of 3660 nM. For the same molecule, the GI50 [55] was 1010 nM, the TGI [55] was 2360 nM and the GI50 [56] was 418 nM. For the same molecule, the TGI [56] was 2260 nM.
In the case of `CNC(=O)c1c(NC(=O)c2cccc(C(F)(F)F)c2F)sc2c1CCC(=O)C2`, the GI50 [4] is reported as 301 nM, the TGI [4] is reported as 1030 nM and the GI50 [5] is reported as 406 nM. The TGI [5] was > 100000 nM, the GI50 [7] was 109 nM and the TGI [7] was > 100000 nM. For the same molecule, the GI50 [14] was 275 nM, the TGI [14] was > 100000 nM and the GI50 [15] was 777 nM. The TGI [15] was > 100000 nM, the GI50 [16] was 208 nM and the TGI [16] was 636 nM. For the same molecule, the GI50 [17] was 379 nM, the TGI [17] was > 100000 nM and the GI50 [19] was 483 nM. For the same molecule, the TGI [19] was > 100000 nM, the GI50 [20] was 174 nM and the TGI [20] was > 100000 nM. The GI50 [57] was 466 nM, the TGI [57] was > 100000 nM and the GI50 [24] was 283 nM. The TGI [24] was > 100000 nM, the GI50 [27] was 341 nM and the TGI [27] was > 100000 nM. The GI50 [35] was 349 nM, the TGI [35] was > 100000 nM and the GI50 [36] was 110 nM. The TGI [36] was > 100000 nM, the GI50 [37] was 141 nM and the TGI [37] was 676 nM. The GI50 [38] was 378 nM, the TGI [38] was > 100000 nM and the GI50 [39] was 357 nM. For the same molecule, the TGI [39] was > 100000 nM, the GI50 [46] was 305 nM and the TGI [46] was > 100000 nM. The GI50 [47] was 361 nM, the TGI [47] was > 100000 nM and the GI50 [48] was 163 nM. The TGI [48] was 794 nM, the GI50 [49] was 112 nM and the TGI [49] was > 100000 nM. The GI50 [53] was 259 nM and the TGI [53] was > 100000 nM.
